Test results: patent US10501780B2, “Compositions for in situ nucleic acid analysis” (APPLIED BIOSYSTEMS, LLC, priority 2007, dated 2019)
*: point of attachment. MeOSuc = COC(=O)CCC(=O)*; CH2Cl = ClC*

What was measured:
[1] = target: proteinase K (PK) (Parengyodontium album, UniProt P06873); assay type: biochemical; settings: PK 600 ug/ml, increasing inhibitor, 3 min; RNaseALERT fluorescence at 520 nm
Protocol: PK (600 ug/ml) was mixed with increasing amounts of test inhibitor and allowed to react for 3 min at room temperature. RNase A was added and the mixture was incubated for 10 min. The RNase A was mixed with RNaseALERT™ substrate (AMBION®, Catalog No. AM1964) and incubated for 10 min. The fluorescence of the RNaseALERT™ substrate was measured at 520 nm.

[2] = test system: DNase I; settings: 1 mM EDTA in Buffer A; 0.2 U DNase I
Protocol: The 590 nm fluorescence intensity with 544 nm excitation was measured with time.

[3] = test system: DNase I
Protocol: The ability of EGTA to inhibit DNase I activity and the limiting amount of EGTA that could be used in RT-PCR was determined. EGTA (88 mM; final conc. of 8 mM) was added to the stop solution for DNase I inactivation. The pH of the stop solution was 8.0 for AAPV (SEQ ID NO:1) inactivation of proteinase K. Tris-base with HCl as needed for pH adjustment (11 mM; final conc of 1 mM) was used for buffering the solution.

[4] = Compatibility of protease inhibitors with two-step RT-PCR; assay type: biochemical
Text: The samples were reverse transcribed using a Reverse Transcriptase Kit (Applied Biosystems Catalog No. 4368813) and the resulting cDNA was subjected to real time PCR with the TAQMAN® Universal PCR Master Mix (Applied Biosystems Catalog No. 4304437).

[5] = Compatibility of protease inhibitors with 1-step RT-PCR; settings: one-step reaction
[6] = test system: HeLa cells; assay: Lysis efficacy of surfactants by propidium iodide staining; assay type: cell-based, H. sapiens; settings: PI staining, 10^5 HeLa cells; for effectiveness at lysing cells: concentrations up to 3%
Protocol: Lysis efficacies of seven surfactants were tested by PI staining (DNA fluorochrome propidium iodide stain for viability, 1 mg/ml) of 10^5 HeLa cells treated with 0.01% to 5% surfactant. The buffer was 10 mM Tris pH 7.5, 2.5 mM MgCl2, 0.5 mM CaCl2.

[7] = target: proteinase K (Parengyodontium album, UniProt P06873); assay: AAPV concentration for proteinase K inhibition in lysis solution (RNase A, Bioanalyzer protein chip); assay type: biochemical; settings: PK 100 ug/ml
Protocol: For one-step RT-PCR, AAPV (SEQ ID NO:1) is effective. To determine the concentration of AAPV (SEQ ID NO:1) for inhibition of proteinase K in the lysis solution, 50 uL lysis solution was mixed with 5 uL of stop solution with varying amounts of AAPV (SEQ ID NO:1) (11 mM Tris, 44 mM EGTA, […] AAPV (SEQ ID NO:1)) and incubated for 10 min. RNase A (15 ug) was added to each sample and the samples were held for 10 min at room temperature. The reaction mixture was heated for 30 min at 95° C. and analyzed using a Protein 50 Bioanalyzer chip (2100 Bioanalyzer, Agilent, Santa Clara, Calif.). The Bioanalyzer protein gel data are provided by FIG. 7 in which the lower marker is at about 3.5 kDa; the next higher prominent bands are system peaks at about 4.0-4.5 kDa; intact RNase A is at about 20 kDa; and proteinase K is at about 35 kDa. Lanes are labeled as follows: (L) Ladder, (1) RNase Only, (2) PK Only, (3)-(8) AAPV (SEQ ID NO:1) at 1 mM (3), 0.75 mM (4), 0.5 mM (5), 0.25 mM (6), 0.125 mM (7), and 0 mM (8).

[8] = target: T1, AMPLITAQ GOLD® DNA polymerase (Thermus aquaticus, UniProt P19821); assay: Effect of surfactants on qPCR (TAQMAN Universal PCR Master Mix, PPIA assay); assay type: biochemical; settings: even at 1% (0.1% final in PCR)
T1 construct: purchased Applied Biosystems 4304437
Protocol: The effects of surfactants on PCR reactions were then studied. qPCR (20 uL) reactions with 4 ng Human Universal reference liver cDNA (Catalog No. 780622; […]®, La Jolla, Calif.) were performed by adding 2 uL of surfactant resuspended in 10 mM Tris pH 7.5 at concentrations of 0.0%, 0.01%, 0.03%, 0.1%, 0.3%, and 1%. qPCR reactions were carried out using the TAQMAN® Universal PCR Master Mix (Applied Biosystems Catalog No. 4304437), and qRT-PCR reactions were carried out using the TAQMAN® One-Step RT-PCR Master Mix (Applied Biosystems Catalog No. 4309169). TAQMAN® gene expression assays were used to determine expressions levels of genes PPIA (peptidylprolyl isomerase A (cyclophilin A)) and B2M (β-2-microglobulin).
ROX™ background fluorescence was not affected.

[9] = concentrations up to 2 mM in the stopped mixture (up to 400 uM in an RT reaction)

Chain of proteinase K (PK) (P06873 106-384): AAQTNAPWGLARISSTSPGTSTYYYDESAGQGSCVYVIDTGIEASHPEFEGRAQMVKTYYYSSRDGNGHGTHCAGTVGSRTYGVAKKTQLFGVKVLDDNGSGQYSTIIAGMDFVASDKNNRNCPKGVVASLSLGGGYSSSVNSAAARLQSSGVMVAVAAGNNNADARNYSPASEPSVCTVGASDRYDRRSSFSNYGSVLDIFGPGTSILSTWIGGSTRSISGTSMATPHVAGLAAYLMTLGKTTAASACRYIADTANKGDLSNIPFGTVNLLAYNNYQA
Chain of proteinase K (P06873 106-384): as above
T1 sequence (P19821 whole entry): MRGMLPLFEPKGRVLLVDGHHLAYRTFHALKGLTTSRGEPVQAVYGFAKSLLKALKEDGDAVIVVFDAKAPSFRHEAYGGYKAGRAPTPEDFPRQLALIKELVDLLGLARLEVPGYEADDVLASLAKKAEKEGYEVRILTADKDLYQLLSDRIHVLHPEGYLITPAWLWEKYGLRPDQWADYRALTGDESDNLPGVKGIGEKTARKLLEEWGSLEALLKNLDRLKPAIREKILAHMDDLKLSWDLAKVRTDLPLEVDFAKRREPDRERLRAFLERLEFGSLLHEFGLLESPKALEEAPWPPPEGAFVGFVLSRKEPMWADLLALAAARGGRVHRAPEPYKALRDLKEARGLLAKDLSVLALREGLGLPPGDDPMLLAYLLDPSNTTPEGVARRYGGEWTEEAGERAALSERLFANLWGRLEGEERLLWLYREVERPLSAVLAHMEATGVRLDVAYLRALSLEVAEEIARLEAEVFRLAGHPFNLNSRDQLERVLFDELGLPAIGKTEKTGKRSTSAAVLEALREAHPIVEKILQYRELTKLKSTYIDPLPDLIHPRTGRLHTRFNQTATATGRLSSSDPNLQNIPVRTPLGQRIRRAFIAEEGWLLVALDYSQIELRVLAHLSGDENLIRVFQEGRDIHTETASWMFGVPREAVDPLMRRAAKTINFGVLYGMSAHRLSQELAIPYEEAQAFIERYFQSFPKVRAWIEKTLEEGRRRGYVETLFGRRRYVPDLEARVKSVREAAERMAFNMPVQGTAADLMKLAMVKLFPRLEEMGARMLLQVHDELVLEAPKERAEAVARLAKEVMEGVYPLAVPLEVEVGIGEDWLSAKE

Molecule: NCCc1ccc(S(=O)(=O)F)cc1 [AEBSF, 4-(2-aminoethyl) benzenesulfonyl fluoride]
- inhibition of PK at room temperature [1]: did not show inhibition

Molecule: O=C(O)CN(CCN(CC(=O)O)CC(=O)O)CC(=O)O [EDTA, ethylenediamine tetraacetic acid]
- effect on DNase I activity (DNaseALERT substrate fluorescence) [2]: inhibitory effect

Molecule: O=C(O)CN(CCOCCOCCN(CC(=O)O)CC(=O)O)CC(=O)O [EGTA, ethylene glycol tetraacetic acid]
- concentration inhibiting DNase I [3]: ≥ 4 mM

Molecule: O=S(=O)(F)Cc1ccccc1 [PMSF, phenylmethylsulfonylfluoride]
- RT-PCR inhibition (two-step) [4, 9]: Minimal RT-PCR inhibition
- compatibility with 1-step RT-PCR [5]: showed RT-PCR inhibition

Molecule: N=C(N)c1ccccc1 [benzamidine]
- inhibition of PK at room temperature [1]: did not show inhibition

Molecule: CC(=O)N[C@@H](CC(C)C)C(=O)N[C@@H](CC(C)C)C(=O)N[C@H](C=O)CCCNC(=N)N [leupeptin, Ac-Leu-Leu-Arg-CHO]
- inhibition of PK at room temperature [1]: capable of inhibiting PK

Molecule: N-tosyl-L-lysine-chloromethyl ketone [TLCK]
- inhibition of PK at room temperature [1]: did not show inhibition

Molecule: TWEEN™ 20
- effectiveness at lysing cells [6]: not effective

Molecule: TWEEN™ 40
- effectiveness at lysing cells [6]: not effective

Molecule: TWEEN™ 80
- effectiveness at lysing cells [6]: not effective

Molecule: aprotinin
- RT-PCR inhibition (two-step) ([4]; all concentrations tested): inhibitory
- compatibility with 1-step RT-PCR [5]: showed RT-PCR inhibition
- inhibition of PK at room temperature [1]: capable of inhibiting PK

Molecule: methoxysuccinyl-Ala-Ala-Pro-Ala-chloromethyl ketone (MeOSuc-AAPA-CH2Cl)
- inhibition of PK at room temperature [1]: did not show inhibition

Molecule: methoxysuccinyl-Ala-Ala-Pro-Val-chloromethyl ketone (MeOSuc-AAPV-CH2Cl)
- RT-PCR inhibition (two-step) [4, 9]: Minimal RT-PCR inhibition
- compatibility with 1-step RT-PCR [5]: compatible
- inhibition of PK at room temperature [1]: capable of inhibiting PK
- lowest concentration inhibiting PK [7]: ≥ 0.25 mM
- lowest concentration inhibiting PK ([7]; listed as Methoxysuccinyl-AAPV-chloromethyl ketone): ≥ 0.75 mM

Molecule: octylphenol ethoxylate having an average of 7.5 ethoxylate groups [TRITON X-114™]
- effect on qPCR (Ct) [8]: no effect

Molecule: octylphenol ethoxylate having an average of 9.5 ethoxylate groups [TRITON X-100™]
- concentrations effective for lysis ([6]; 0.01% to 5% surfactant tested, 1% TRITON X-100 as full lysis control): ≥ 0.05%

B1: N-acetyl-Eglin C: Catalog No. E7888, Sigma-Aldrich; inhibitor of chymotrypsin, subtilisin, leukocyte elastase and cathepsin G (protein)
chain: Ac-TEFGSELKSFPEVVGKTVDQAREYFTLHYPQYDVYFLPEGSPVTLDLRYNRVRVFYNPGTNVVNHVPHVG
- inhibition of PK at room temperature [1]: did not show inhibition
